Measured values as given in ChEMBL document CHEMBL1201862, “PubChem BioAssay data set” (2004).
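The compound was tested at five concentrations on cells cultured in 96-well plates, with a 48-hour exposure period. At the GI50, growth is halved.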 Activity calls are given as the source filed them. No stated cut-off is given here; in the data, active = GI50 up to about 1.1 µM and inactive = higher.

Tests used:
Experiment in all cases: inhibition of tumour cell growth, NCI panel, 48 h
[1] = system: PC-3
[2] = system: Hs-578T
[3] = system: MDA-N
[4] = system: NCI-H23
[5] = system: HCT-15
[6] = system: IGROV-1
[7] = system: RPMI-8226
[8] = system: SF-539
[9] = system: BT-549
[10] = system: HL-60
[11] = system: HCC 2998
[12] = system: MOLT-4
[13] = system: SK-MEL-2
[14] = system: SF-295
[15] = system: UACC-62
[16] = system: OVCAR-3
[17] = system: SK-OV-3
[18] = system: NCI-H460
[19] = system: HCT-116
[20] = system: DU-145

Q: Which GI50 [1] does the source give for COc1ccc2cc1Oc1ccc(cc1)CC1c3c(cc(OC)c4c3Oc3cc5c(cc3O4)CCNC5C2)CCN1C (stereo unspecified) here?
A: Its GI50 is 1.88 µM (inactive).

Q: And the GI50 [2]?
A: Its GI50 is 2.19 µM (inactive).

Q: What about the GI50 [3] of the same molecule?
A: Its GI50 is 1.83 µM (inactive).

Q: What about the GI50 [4] of the same molecule?
A: The GI50 was 2.06 µM (inactive).

Q: And the GI50 [5]?
A: The GI50 was 1.77 µM.

Q: What about the GI50 [6] of the same molecule?
A: The GI50 was 1.87 µM (inactive).

Q: What about the GI50 [7] of the same molecule?
A: The GI50 was 1.63 µM (inactive).

Q: And the GI50 [8]?
A: The GI50 was 1.7 µM (inactive).

Q: What about the GI50 [9] of the same molecule?
A: Its GI50 is 2.77 µM (inactive).

Q: And the GI50 [10]?
A: Its GI50 is 1.84 µM (inactive).

Q: What about the GI50 [11] of the same molecule?
A: Its GI50 is 1.2 µM (inactive).

Q: And the GI50 [12]?
A: Its GI50 is 1.46 µM (inactive).

Q: What about the GI50 [13] of the same molecule?
A: The GI50 was 1.84 µM (inactive).

Q: And the GI50 [14]?
A: Its GI50 is 1.91 µM (inactive).

Q: And the GI50 [15]?
A: The GI50 was 1.82 µM (inactive).

Q: And the GI50 [16]?
A: Its GI50 is 2.69 µM (inactive).

Q: What about the GI50 [17] of the same molecule?
A: The GI50 was 4.67 µM (inactive).

Q: What does the source list for CCOP(=O)(OCC)/C(C#N)=C/c1cn(C)cn1?
A: GI50 [1]: > 100 µM (inactive); GI50 [3]: > 100 µM (inactive); GI50 [4]: > 100 µM (inactive); GI50 [5]: > 100 µM; GI50 [6]: > 100 µM (inactive); GI50 [18]: > 100 µM (inactive); GI50 [8]: > 100 µM (inactive); GI50 [9]: > 100 µM (inactive); GI50 [11]: > 100 µM (inactive); GI50 [12]: > 10 µM (inactive); GI50 [13]: > 100 µM (inactive); GI50 [14]: > 100 µM (inactive); GI50 [15]: > 100 µM (inactive); GI50 [16]: > 100 µM (inactive); GI50 [17]: > 100 µM (inactive)

Q: O=C1OC[C@@H]2Cc3cc4c(cc3[C@H](c3ccc5c(c3)OCO5)[C@@H]12)OCO4 was tested. Which GI50 [3] did it give?
A: The GI50 was 12 µM (inactive).

Q: And the GI50 [4]?
A: Its GI50 is > 25 µM (inactive).

Q: What about the GI50 [5] of the same molecule?
A: Its GI50 is 11 µM.

Q: And the GI50 [18]?
A: Its GI50 is > 25 µM (inactive).

Q: And the GI50 [7]?
A: The GI50 was > 25 µM (inactive).

Q: And the GI50 [9]?
A: The GI50 was > 25 µM (inactive).

Q: And the GI50 [19]?
A: Its GI50 is 18.2 µM (inactive).

Q: What about the GI50 [10] of the same molecule?
A: Its GI50 is 10.6 µM (inactive).

Q: And the GI50 [11]?
A: Its GI50 is > 25 µM (inactive).

Q: What about the GI50 [12] of the same molecule?
A: The GI50 was 4.11 µM (inactive).

Q: And the GI50 [13]?
A: Its GI50 is > 25 µM (inactive).

Q: What about the GI50 [20] of the same molecule?
A: The GI50 was > 25 µM (inactive).

Q: What about the GI50 [14] of the same molecule?
A: Its GI50 is 24.7 µM (inactive).

Q: What about the GI50 [16] of the same molecule?
A: Its GI50 is > 25 µM (inactive).

Q: Which results are given for CCn1nc(C)c2c1C(=O)NC(C)C(=O)N2 (stereo unspecified)?
A: GI50 [1]: > 100 µM (inactive); GI50 [2]: > 100 µM (inactive); GI50 [3]: > 100 µM (inactive); GI50 [4]: > 100 µM (inactive); GI50 [5]: 15.1 µM; GI50 [6]: > 100 µM (inactive); GI50 [18]: > 100 µM (inactive); GI50 [8]: > 100 µM (inactive); GI50 [9]: > 100 µM (inactive); GI50 [19]: > 100 µM (inactive); GI50 [20]: > 100 µM (inactive); GI50 [14]: > 100 µM (inactive); GI50 [15]: > 100 µM (inactive); GI50 [16]: > 100 µM (inactive); GI50 [17]: > 100 µM (inactive)

Q: With CC1=C(C(=O)NNC(=O)CC#N)CC(C(=O)NNC(=O)CC#N)=C(C)N1 as the molecule, how does the GI50 [3] read?
A: Its GI50 is > 100 µM (inactive).

Q: What about the GI50 [4] of the same molecule?
A: The GI50 was > 100 µM (inactive).

Q: And the GI50 [5]?
A: The GI50 was greater than 100 µM.

Q: And the GI50 [6]?
A: Its GI50 is > 100 µM (inactive).

Q: And the GI50 [18]?
A: The GI50 was > 100 µM (inactive).

Q: And the GI50 [8]?
A: Its GI50 is > 100 µM (inactive).

Q: What about the GI50 [9] of the same molecule?
A: Its GI50 is > 100 µM (inactive).

Q: What about the GI50 [19] of the same molecule?
A: Its GI50 is > 100 µM (inactive).

Q: And the GI50 [10]?
A: The GI50 was 82.6 µM (inactive).

Q: And the GI50 [11]?
A: Its GI50 is > 100 µM (inactive).

Q: And the GI50 [12]?
A: The GI50 was > 100 µM (inactive).

Q: What about the GI50 [13] of the same molecule?
A: Its GI50 is > 100 µM (inactive).

Q: What about the GI50 [20] of the same molecule?
A: Its GI50 is > 100 µM (inactive).

Q: And the GI50 [14]?
A: The GI50 was > 100 µM (inactive).

Q: What about the GI50 [16] of the same molecule?
A: Its GI50 is > 100 µM (inactive).

Q: And the GI50 [17]?
A: Its GI50 is > 100 µM (inactive).

Q: Which results are given for CCOC(=O)/C(=C\NC(C)(C)CO)c1nc2ccccc2[nH]1?
A: GI50 [2]: 34.4 µM (inactive); GI50 [3]: > 100 µM (inactive); GI50 [4]: 67.8 µM (inactive); GI50 [5]: 81.7 µM; GI50 [6]: 41.5 µM (inactive); GI50 [18]: 36.1 µM (inactive); GI50 [7]: 30.8 µM (inactive); GI50 [8]: > 100 µM (inactive); GI50 [9]: > 100 µM (inactive); GI50 [19]: > 100 µM (inactive); GI50 [10]: 44.5 µM (inactive); GI50 [11]: 46.2 µM (inactive); GI50 [12]: 43.3 µM (inactive); GI50 [20]: > 100 µM (inactive); GI50 [14]: 64.6 µM (inactive); GI50 [15]: 43.5 µM (inactive); GI50 [16]: > 100 µM (inactive); GI50 [17]: > 100 µM (inactive)

Q: Which results are given for COC1C(OC(N)=O)C(O)C(Oc2ccc3c(O)c(NC(=O)c4ccc(O)c(CC=C(C)C)c4)c(=O)oc3c2C)OC1(C)C (stereo unspecified)?
A: GI50 [1]: > 100 µM (inactive); GI50 [3]: > 100 µM (inactive); GI50 [5]: 60.5 µM; GI50 [6]: > 100 µM (inactive); GI50 [18]: 62.2 µM (inactive); GI50 [7]: 28.4 µM (inactive); GI50 [8]: > 100 µM (inactive); GI50 [9]: > 100 µM (inactive); GI50 [19]: > 100 µM (inactive); GI50 [11]: 47.5 µM (inactive); GI50 [12]: 48 µM (inactive); GI50 [13]: > 100 µM (inactive); GI50 [20]: > 100 µM (inactive); GI50 [15]: 69.2 µM (inactive); GI50 [16]: > 100 µM (inactive); GI50 [17]: > 100 µM (inactive)
